Consider eleven molecules from PubChem BioAssay AID2060507 (Molecular Pharmacology Branch, DTP, NCI, 2025).

The assay concerns 519858-162-T-J1-PDC complex spheroid viability. Description: Anticancer human tumor 519858-162-T-J1-PDC patient-derived colon adenocarcinoma cell line growth inhibition [GQUAD]. The note with it: for viability, T/C: stronger effect = lower value; for IC50: curve of compound. The text has this: DNA G-quadruplex Stabilizer Agents in Combinations in Complex Spheroids
A high-throughput screen of multi-cell type tumor spheroids was designed to identify active combinations of DNA G-quadruplex stabilizer agents and targeted small molecules. Complex spheroids include a stromal component modeled by human endothelial cells (HUVEC) and fibroblasts modeled by human mesenchymal stem cells (MSCs). The concentration ranges selected for each drug and investigational agent were based upon clinically achievable concentrations if the clinical Cmax of the agent was known.
Compounds. The drugs and investigational agents: pidnarulex (CX-5461; NSC782164), APTO-253 (NSC789042), BRACO-19 (NSC847499), peposertib (NSC802822), ceralasertib (NSC780249), elimusertib (NSC800525), camonsertib (NSC841442), AZD-1390 (NSC803789), olaparib (NSC753686), talazoparib (NSC767125), ART-558 (NSC835418), sotorasib (NSC818433), MRTX-1133 (NSC836407), SN-38 (NSC673596), topotecan (NSC609699), etoposide (NSC141540), doxorubicin (NSC123127), gemcitabine (NSC613327), 5-fluorouracil (NSC19893), paclitaxel (NSC125973), vemurafenib (NSC761431), panobinostat (NSC761190), R-306465 (JNJ-16241199; NSC773264), adavosertib (NSC754352), TP-3654 (NSC805149), carboplatin (NSC241240), KSQ-4279 (NSC840948), and staurosporine (NSC755774) were obtained from the National Cancer Institute (NCI) Developmental Therapeutics Program Chemical Repository (34). The FDA-approved anticancer drug set is available from the NCI Developmental Therapeutics Program. […] The stock solutions were prepared in dimethyl sulfoxide (DMSO, Sigma-Aldrich, St. Louis, MO, cat. D2650) at 800-fold the tested concentration and stored at -70 degrees C prior to their use. All drugs and investigational agents were tested over a range starting from a high concentration at or near the clinical Cmax and decreasing in half-log increments. If the clinical Cmax for an agent had not been determined, the highest concentration tested was 10 microM.
2.3 Cell Culture. All cells were maintained in an incubator at 37 degrees C and 5% CO2 with 95% humidity. The PDC lines were cultured according to standard operating procedures established by the NCI PDMR. All PDCs were thawed and cultured in Matrigel-coated flasks prepared with a working solution of 1X Ham's F-12 nutrient mix, without supplementation (Invitrogen, cat. 11765054), 100 U/mL penicillin-streptomycin (Invitrogen, cat. 15140122), and 2.5% Matrigel (Corning Inc., cat. 354248) for the first three passages. The 857933-349-R-J2-PDC line was cultured in 6C/Colon 1B media, which includes advanced DMEM/F-12 (Thermo Fisher Scientific, cat. 12634028), 10 mM HEPES (Thermo Fisher Scientific, cat. 15630080), 1X GlutaMAX supplement (Thermo Fisher Scientific, cat. 35050061), 0.1 mg/mL primocin (InvivoGen, cat. ant-pm-2), 10% defined fetal bovine serum, heat inactivated (HyClone Laboratories Inc., cat. SH30070.03HI), 50% L-WRN conditioned media (ATCC, cat. CRL-3276), 1.25 mM N-Acetyl-L-cysteine (Sigma-Aldrich, cat. A9165), 10 mM nicotinamide (Sigma-Aldrich, cat. N0636), 1X B-27 supplement (Thermo Fisher Scientific, cat. 17504044), 1X N-2 supplement (Thermo Fisher Scientific, cat. 17502048), 10 microM Y-27632 dihydrochloride (Tocris Bioscience, cat. 1254), and 50 ng/mL human EGF recombinant protein (Thermo Fisher Scientific, cat. PHG0311). The 485176-168-R4-J1-PDC line was cultured in Panc media, which includes all 6C/Colon 1B media components plus 100 ng/mL human FGF-10 (Thermo Fisher Scientific, cat. 100-26), 500 nM SB-431542 (Selleckchem, cat. S1067), and gastrin (Tocris, cat. 3006).
[…]

Several values for one entry are separate records, joined by “and”; a condition that tells them apart may be missing. Identical values can stand only once.
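Note: spheroids exposed to compounds for 7 days.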

As a reminder, the viability, T/C is the result in the treated group divided by that in the control group, in per cent. For orientation: IC50 means the point on the concentration scale where inhibition reaches its midpoint. Regarding `C#Cc1c(F)ccc2cc(O)cc(-c3ncc4c(N5CC6CCC(C5)N6)nc(OCC56CCCN5CC(F)C6)nc4c3F)c12` (configuration not stated), the IC50 is > 10 µM. Where the note is “compound 0.0316 µM”, the viability, T/C was 93.8% and 103% and 90.4%. For the same molecule, for the setting “compound 0.1 µM”, the viability, T/C is 101% and 86% and 69.8%. Also, the viability, T/C (compound 0.316 µM) is 110% and 97.8% and 105%. The viability, T/C (compound 1 µM) was 83.9% and 94.1% and 98.5%. The viability, T/C (compound 3.16 µM) is 88.3% and 93.2% and 89%. Where the note is “compound 10 µM”, the viability, T/C was 86.6% and 71.6% and 81.2%.

Regarding `C=CC(=O)N1CCN(c2nc(=O)n(-c3c(C)ccnc3C(C)C)c3nc(-c4c(O)cccc4F)c(F)cc23)C(C)C1` (configuration not stated), the IC50 was > 10 µM. In addition, the viability, T/C (compound 0.0316 µM) was 75% and 84.1% and 70.8%. Further, under “compound 0.1 µM”, the viability, T/C was 84.2% and 85.5% and 98.3%. The viability, T/C (compound 0.316 µM) was 89% and 80.9% and 104%. Also, the viability, T/C (compound 1 µM) is 103% and 77.7% and 99%. Besides, the viability, T/C (compound 3.16 µM) was 104% and 70.7% and 95.2%. Also, where the note is “compound 10 µM”, the viability, T/C is 71.5% and 91% and 74.5%.

In the case of `CC(=O)O[C@H]1C(=O)[C@@]2(C)[C@H]([C@H](OC(=O)c3ccccc3)[C@]3(O)C[C@H](OC(=O)[C@H](O)[C@@H](NC(=O)c4ccccc4)c4ccccc4)C(C)=C1C3(C)C)[C@]1(OC(C)=O)CO[C@@H]1C[C@@H]2O`, the IC50 was > 10 µM. Moreover, the viability, T/C (compound 0.0316 µM) is 83.9% and 107% and 108%. Further, the viability, T/C (compound 0.1 µM) was 113% and 101% and 80.3%. Further, for the setting “compound 0.316 µM”, the viability, T/C is 93.4% and 80.2% and 97.1%. Further, the viability, T/C (compound 1 µM) was 87% and 83.3% and 85.1%. Further, under “compound 3.16 µM”, the viability, T/C was 89% and 82.4% and 95.4%. In addition, the viability, T/C (compound 10 µM) is 101% (2×) and 86.7%.

As to `CC(C)(O)C1CCC(Nc2ccc3ncc(-c4cccc(C(F)(F)F)c4)n3n2)CC1` (configuration not stated), the 50% inhibitory concentration (IC50) is 2.46 µM and 1.84 µM. Besides, the viability, T/C (compound 0.0316 µM) was 79%. For the same molecule, the viability, T/C (compound 0.1 µM) is 119% and 115%. Further, the viability, T/C (compound 0.316 µM) is 104% and 106%. In addition, the viability, T/C (compound 1 µM) is 80.3% and 73%. The viability, T/C (compound 3.16 µM) is 34.5% and 13.3%. The viability, T/C (compound 10 µM) is 48.6% and 45.4%.

`CC(C)n1c(=O)n(C)c2cnc3cc(F)c(-c4ccc(OCCCN5CCCCC5)nc4)cc3c21`: the IC50 was > 10 µM. In addition, for the setting “compound 0.0316 µM”, the viability, T/C is 123% and 93.8%. For the same molecule, the viability, T/C (compound 0.1 µM) was 107% and 102%. The viability, T/C (compound 0.316 µM) was 86.9% and 69.8%. Also, the viability, T/C (compound 1 µM) was 108% and 91.8%. Besides, the viability, T/C (compound 3.16 µM) is 73.7% and 81.7%. Under “compound 10 µM”, the viability, T/C was 120% and 93.2%.

With `CC1COCCN1c1cc(-c2ccnn2C)c2ccnc(-c3ccn[nH]3)c2n1` (configuration not stated), the IC50 was 4.78 µM and 2.43 µM. The viability, T/C (compound 0.0316 µM) is 103% and 94%. In addition, the viability, T/C (compound 0.1 µM) is 93.7% and 82.9%. In addition, the viability, T/C (compound 0.316 µM) was 96.7% and 65%. For the same molecule, the viability, T/C (compound 1 µM) is 117% and 98.3%. For the same molecule, where the note is “compound 3.16 µM”, the viability, T/C is 58.8% and 39.7%. Besides, under “compound 10 µM”, the viability, T/C was 34.3% and 26.3%.

In the case of `CC1COCCN1c1cc(C2(O)CC3CCC(C2)O3)c2cnn(-c3ccn[nH]3)c2n1` (configuration not stated), the IC50 is > 10 µM and 3.34 µM. The viability, T/C (compound 0.0316 µM) is 109% and 94.9%. In addition, where the note is “compound 0.1 µM”, the viability, T/C was 107% and 101%. Further, under “compound 0.316 µM”, the viability, T/C was 89.3% and 63%. Further, the viability, T/C (compound 1 µM) is 70.9% and 74%. In addition, the viability, T/C (compound 3.16 µM) is 93.6% and 47.8%. In addition, the viability, T/C (compound 10 µM) was 66.3% and 38%.

With `CC1COCCN1c1cc(C2(S(C)(=N)=O)CC2)nc(-c2ccnc3[nH]ccc23)n1` (configuration not stated), the IC50 is > 10 µM. Also, the viability, T/C (compound 0.0316 µM) is 118% and 109% and 93.2%. For the same molecule, the viability, T/C (compound 0.1 µM) is 80.8% and 90.4% and 89.4%. Also, the viability, T/C (compound 0.316 µM) is 80.8% and 111% and 79%. In addition, under “compound 1 µM”, the viability, T/C was 115% and 98.5% and 105%. The viability, T/C (compound 3.16 µM) was 51.5% and 98.4% and 90.3%. Further, the viability, T/C (compound 10 µM) was 61.3% and 105% and 86.2%.

Regarding `CCCS(=O)(=O)Nc1ccc(F)c(C(=O)c2c[nH]c3ncc(-c4ccc(Cl)cc4)cc23)c1F`, the IC50 was > 10 µM. Also, the viability, T/C (compound 0.0316 µM) was 88.3%. The viability, T/C (compound 0.1 µM) was 112%. In addition, for the setting “compound 0.316 µM”, the viability, T/C is 114%. In addition, under “compound 1 µM”, the viability, T/C is 97.1%. In addition, the viability, T/C (compound 3.16 µM) is 125%. Also, the viability, T/C (compound 10 µM) is 103%.

Consider `CC[C@@]1(O)C(=O)OCc2c1cc1n(c2=O)Cc2cc3c(CN(C)C)c(O)ccc3nc2-1`, for which the IC50 is > 0.316 µM. Further, the viability, T/C (compound 0.000999 µM) is 86.1% and 63.7%. The viability, T/C (compound 0.00316 µM) is 69.6% and 123%. The viability, T/C (compound 0.00999 µM) is 93.4% and 97%. In addition, the viability, T/C (compound 0.0316 µM) is 141% and 107%. In addition, the viability, T/C (compound 0.0999 µM) is 90.9% and 92.7%. For the same molecule, the viability, T/C (compound 0.316 µM) was 75.1% and 69.3%.

For `CCc1c2c(nc3ccc(O)cc13)-c1cc3c(c(=O)n1C2)COC(=O)[C@]3(O)CC`, the IC50 is > 0.316 µM. Moreover, the viability, T/C (compound 0.000999 µM) is 95% and 84%. Besides, where the note is “compound 0.00316 µM”, the viability, T/C is 74.7% and 67.6%. In addition, the viability, T/C (compound 0.00999 µM) was 43.7% and 57.5%. Moreover, where the note is “compound 0.0316 µM”, the viability, T/C is 68.9% and 65.7%. The viability, T/C (compound 0.0999 µM) was 89.6% and 60.6%. Further, the viability, T/C (compound 0.316 µM) is 64.6% and 78.9%.
